# From patent US20040063770A1, “Method for treating Alzheimer's disease” (Warner-Lambert Company, priority 2000, published 2004)
# System: Aβ secretion from CHO cells transfected with Swedish mutation Amyloid Precursor Protein (CHO-APPsw)
# Assay: Aβ secretion inhibition in CHO-APPsw cells, sandwich ELISA
# Format: cell-based
# Details: CHO, read-out: Effect on Aβ Secretion (Concentration) (IC50)
# Description: This is an […] assay designed to show the ability of test compounds to […]. CHO cells transfected with human AβPP bearing the Swedish mutation AβPP(CHO-AβPPsw) were treated with a farnesyl transferase inhibitor (FTI) (e.g., compounds from Table 1). The assay was carried out as follows:
# CHO cells transfected with Swedish mutation Amyloid Precursor Protein (CHO-APPsw) were maintained in Dulbecco's Modified Eagle Medium (DMEM) media supplemented with nonessential amino acids (NEAA, Gibco-BRL Company) and 10% (v/v) heat inactivated Fetal Calf Serum (Hyclone Company), penicillin and streptomycin (Gibco-BRL).
# The polyclonal antibodies were purified on a protein G-Sepharose column prior to use. Biotinylated monoclonal antibody 4G8 which recognizes amino acids 17-24 of Aβ (Senetek plc, St. Louis, Mo., USA) was used as the detection antibody. Alkaline phosphatase-conjugated strepavidin (Zymed Laboratories, San Francisco, Calif., USA) was used to bind the biotinylated detection antibody followed by Attophos (JBL Scientific, St. Luis Obispo, Calif., USA), the substrate for alkaline phosphatase. Fluorescence was measured using a Cytofluor plate reader (Perseptive Biosystems, Framingham, Mass., USA) set at 450 nm excitation and 560 emission. Synthetic Aβ40 and Aβ42 peptides used for standard curves were purchased from California Peptide (Napa, Calif., USA).
row,Structure (SMILES),IC50 [µM]
1,"O=C1CCCc2c1ccc(O[C@H](Cn1ccnc1)c1ccccc1)c2CCc1ccccc1 [Compound 1, (S) 6-(2-Imidazol-1-yl-1-phenyl-ethoxy)-5-phenethyl-3,4-dihydro-2H-naphthalen-1-one]",0.7
2,"O=C1CCCc2cc(O[C@@H](Cn3ccnc3)c3ccccc3)ccc21 [Compound 5, (R) 6-(2-Imidazol-1-yl-1-phenyl-ethoxy)-3,4-dihydro-2H-naphthalen-1-one]",1.5
3,"CC(C)OCc1c(OC(Cn2ccnc2)c2ccccc2)ccc2c1CCCC2=O (centres unmarked) [Compound 7, 6-(2-Imidazol-1-yl-1-phenyl-ethoxy)-5-isopropoxymethyl-3,4-dihydro-2H-naphthalen-1-one]",37.9
4,"O=C1CCCc2c1ccc(O[C@H](Cn1ccnc1)c1ccccc1)c2CNc1ccccc1 [Compound 8, (S) 6-(2-Imidazol-1-yl-1-phenyl-ethoxy)-5-phenylaminomethyl-3,4-dihydro-2H-naphthalen-1-one]",7.6
5,"O=C1CCCc2c1ccc(O[C@H](Cn1ccnc1)c1ccccc1)c2CCc1ccc(F)cc1 [Compound 9, (S) 6-(2-Imidazol-1-yl-1-phenyl-ethoxy)-5-[2-(4-fluorophenyl)ethyl]-3,4-dihydro-2H-naphthalen-1-one]",4.5
6,"O=C1CCCc2c1ccc(O[C@H](Cn1ccnc1)c1ccccc1)c2CS(=O)(=O)c1ccccc1 [Compound 10, (S) 5-Benzenesulfonylmethyl-6-(2-imidazol-1-yl-1-phenyl-ethoxy)-3,4-dihydro-2H-naphthalen-1-one]",25.4
7,"O=C1CCCc2c1ccc(O[C@H](Cn1ccnc1)c1ccccc1)c2CCc1ccccn1 [Compound 12, (S) 6-(2-Imidazol-1-yl-1-phenyl-ethoxy)-5-(2-pyridin-2-yl-ethyl)-3,4-dihydro-2H-naphthalen-1-one]",12
8,"O=C1CCCc2c1ccc(OC(Cn1ccnc1)c1ccccc1)c2CCc1ccncc1 (centres unmarked) [Compound 13, 6-(2-Imidazol-1-yl-1-phenyl-ethoxy)-5-(2-pyridin-4-yl-ethyl)-3,4-dihydro-2H-naphthalen-1-one]",11
9,"O=C1CCCc2c1ccc(OCCc1cncn1Cc1ccccc1)c2CCc1ccccc1 [Compound 15, 6-[2-(3-Benzyl-3H-imidazol-4-yl)-ethoxy]-5-phenethyl-3,4-dihydro-2H -naphthalen-1-one; trifluoro-acetate]",1.5

# Same assay, conditions: CHO-APPsw cells, serum free media overnight at 37° C., secreted Aβ by sandwich ELISA; read-out: Effect on Aβ Secretion (Concentration) (IC50)
row,Structure (SMILES),IC50 [µM]
1,"O=C1/C(=C/c2cccs2)CCc2cc(OC(Cn3ccnc3)c3ccccc3)ccc21 (racemic) [Compound 3, E-(+/−)6-(2-Imidazol-1-yl-1-phenyl-ethoxy)-2-thiophen-2-ylmethylene-3,4-dihydro-2H-naphthalen-1-one]",4.5
2,"O=C1CCCc2cc(OC(Cn3ccnc3)c3ccc(Cl)cc3)ccc21 (racemic) [Compound 4, 6-[1-(4-Chloro-phenyl)-2-imidazol-1-yl-ethoxy]-3,4-dihydro-2H-napththalen-1-one racemic]",25
3,"O=C1CCC(c2ccccc2)c2cc(OC(Cn3ccnc3)c3ccccc3)ccc21 (racemic) [Compound 6, 6-(2-Imidazol-1-yl-1-phenyl-ethoxy)-4-phenyl-3,4-dihydro-2H-naphthalen-1-one racemic]",3.1
4,"O=C1CCCc2cc(OCCc3c[nH]cn3)ccc21 [Compound 2, 6-[2-(1H-Imidazol-4-yl)-ethoxy]-3,4-dihydro-2H-naphthalen-1-one]",7.6
5,"O=C1CCCc2c1ccc(S[C@H](Cn1ccnc1)c1ccccc1)c2CCc1ccccc1 [Compound 11, (S) 6-(2-Imidazol-1-yl-1-phenyl-ethylsulfanyl)-5-phenethyl-3,4-dihydro-2H-naphthalen-1-one]",1.5
6,"O=C(O)CCC(Oc1ccc2c(c1CCc1ccccc1)CCCC2=O)c1ccccc1 (centres unmarked) [Compound 14, 4-(5-Oxo-1-phenethyl-5,6,7,8-tetrahydro-naphthalen-2-yloxy)-4-phenyl-butyric acid]",13.8
7,"CC(C)(CNC(=O)CN(Cc1ccc(OCc2ccccc2)cc1)C(=O)[C@H](Cc1cnc[nH]1)NC(=O)OCc1ccccc1)c1ccccc1 [Compound 16, (S) [1-{(4-Benzyloxy-benzyl)-[(2-methyl-2-phenyl-propycarbamoyl)-methyl]-carbamoyl}-2-(3H-imidazol-4-yl)-ethyl]-carbamic acid benzyl ester]",50
8,"Cc1ccc(CN(CC(=O)NCC2(c3ccccc3)CCC2)C(=O)[C@H](Cc2c[nH]cn2)NC(=O)OCc2ccccc2)cc1 [Compound 17, (S) [2-(1H-Imidazol-4-yl)-1-((4-methyl-benzyl)-{[(1-phenyl-cyclobutylmethyl)-carbamoyl]-methyl}-carbamoyl)-ethyl]-carbamic acid benzyl ester]",10
9,"CN1C(=O)CC(c2cccc(Cl)c2)c2cc(C(Nc3cncn3C)c3ccc(Cl)cc3)ccc21 (centres unmarked) [Compound 18, 1-Methyl-4-(3-chlorophenyl)-6-[(4-chlorophenyl)-(1-methylimidazol-5-yl)aminomethyl]-2,3-dihydroquinolin-2-one]",6
10,"O=C(CN(Cc1ccc(OCc2ccccc2)cc1)C(=O)[C@H](Cc1c[nH]cn1)NC(=O)OCc1ccccc1)NCCOCc1ccccc1 [Compound 19, (S) [1-{(4-Benzyloxy-benzyl)-[(2-benzyloxy-ethylcarbamoyl)-methyl]-carbamoyl}-2-(1H-imidazol-4-yl)ethyl]-carbamic acid benzyl ester]",10

# Same assay, conditions: transfected CHO cells treated with 10 μM compound
row,Structure (SMILES),fold decrease in secreted Aβ [fold]
1,"O=C1CCCc2c1ccc(O[C@H](Cn1ccnc1)c1ccccc1)c2CCc1ccccc1 [Compound 1, (S) 6-(2-Imidazol-1-yl-1-phenyl-ethoxy)-5-phenethyl-3,4-dihydro-2H-naphthalen-1-one]",6.5
